Laboratory results published in patent publication US10160747B2, “Compounds and methods for kinase modulation, and indications therefor” (Plexxikon Inc., priority 2016, dated 2018).

Experiments:
[1] = tested on: MOLM-14 F691L (endogenous FLT3 ITD and transfected FLT3 F691L); experiment: MOLM-14 F691L cell proliferation assay (CellTiter-Glo); assay type: cell-based; conditions: Homo sapiens, MOLM-14, 72 h; 3 d growth, GMean
How it was run: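 Three-day proliferation at 37 °C/5% CO2 of FLT3-ITD MOLM-14 lines with D835Y or F691L mutation, seeded 1×10^4 per well. Compounds at eight points, top 1 μM final, 0.2% DMSO. ATP luminescence (CellTiter-Glo) gives IC50.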

[2] = target: T1, FLT3-ITD (Homo sapiens, UniProt P36888); experiment: FLT3-ITD recombinant enzyme kinase assay (AlphaScreen); assay type: biochemical; conditions: 8 pt; read-out: FLT3_ITD 8 pt: IC50
T1 sequence (P36888 1-993): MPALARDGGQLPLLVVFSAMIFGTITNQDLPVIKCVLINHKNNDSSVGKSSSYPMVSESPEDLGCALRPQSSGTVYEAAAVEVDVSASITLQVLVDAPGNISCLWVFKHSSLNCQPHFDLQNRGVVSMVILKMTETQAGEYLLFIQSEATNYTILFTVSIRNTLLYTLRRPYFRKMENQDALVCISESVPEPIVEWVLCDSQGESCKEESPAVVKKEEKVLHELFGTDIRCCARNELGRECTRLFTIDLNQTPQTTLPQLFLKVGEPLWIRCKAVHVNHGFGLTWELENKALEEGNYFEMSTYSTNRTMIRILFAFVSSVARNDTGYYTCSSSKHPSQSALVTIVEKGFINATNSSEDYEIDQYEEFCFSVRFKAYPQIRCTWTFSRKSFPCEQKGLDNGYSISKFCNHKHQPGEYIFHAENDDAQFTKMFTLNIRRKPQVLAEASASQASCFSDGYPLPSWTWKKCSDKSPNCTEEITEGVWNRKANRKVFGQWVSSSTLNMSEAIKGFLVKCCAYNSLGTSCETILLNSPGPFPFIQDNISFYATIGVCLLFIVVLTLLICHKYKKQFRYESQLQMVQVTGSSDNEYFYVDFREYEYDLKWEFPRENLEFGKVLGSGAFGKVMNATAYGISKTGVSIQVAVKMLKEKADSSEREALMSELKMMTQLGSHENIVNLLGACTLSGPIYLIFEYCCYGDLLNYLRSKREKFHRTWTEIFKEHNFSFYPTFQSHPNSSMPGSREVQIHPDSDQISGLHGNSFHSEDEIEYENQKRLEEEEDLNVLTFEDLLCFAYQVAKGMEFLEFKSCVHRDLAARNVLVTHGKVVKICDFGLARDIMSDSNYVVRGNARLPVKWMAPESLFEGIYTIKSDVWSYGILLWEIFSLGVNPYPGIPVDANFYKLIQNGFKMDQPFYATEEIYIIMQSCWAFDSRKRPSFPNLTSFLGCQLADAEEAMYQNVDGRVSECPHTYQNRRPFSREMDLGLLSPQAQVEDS
How it was run: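 IC50 values come from AlphaScreen proximity signal: phosphorylated biotin-poly(Glu4-Tyr) (30 nM) bridges streptavidin donor and anti-phosphotyrosine PY20 acceptor beads. Enzyme reactions ran at 100 μM ATP for c-KIT versus 10 μM for both FLT3 mutants (ITD, D835Y); beads added in stop buffer, room temperature.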

Row | SMILES | IC50 [1] [µM] | IC50 [2] [µM]
1 | Cn1cc(Nc2ncc(-c3ccc(CC(=O)Nc4cc(C(F)(F)F)ccn4)cc3F)cn2)cn1 [Compound P-0017, 2-[3-fluoro-4-[2-[(1-methylpyrazol-4-yl)amino]pyrimidin-5-yl]phenyl]-N-[4-(trifluoromethyl)-2-pyridyl]acetamide] | 0.0001 to 10 | 0.0001 to 10
2 | Cn1cnc(Nc2ncc(-c3ccc(CC(=O)Nc4cc(C(F)(F)F)ccn4)cc3)cn2)c1 [Compound P-0022, 2-[4-[2-[(1-methylimidazol-4-yl)amino]pyrimidin-5-yl]phenyl]-N-[4-(trifluoromethyl)-2-pyridyl]acetamide] | 0.0001 to 10 | 0.0001 to 10
3 | O=C(Cc1ccc(-c2cnc(Nc3cnn(C(F)F)c3)nc2)cc1)Nc1cc(C(F)(F)F)ccn1 [Compound P-0023, 2-[4-[2-[[1-(difluoromethyl)pyrazol-4-yl]amino]pyrimidin-5-yl]phenyl]-N-[4-(trifluoromethyl)-2-pyridyl]acetamide] | 0.0001 to 10 | 0.0001 to 10
4 | COc1cc(-c2cc3cc(-c4ccc(CC(=O)Nc5cncc(C(F)(F)F)c5)cc4F)cnc3[nH]2)ccn1 [Compound P-0200, 2-(3-fluoro-4-(2-(2-methoxypyridin-4-yl)-1H-pyrrolo[2,3-b]pyridin-5-yl)phenyl)-N-(5-(trifluoromethyl)pyridin-3-yl)acetamide] | 0.0001 to 10 | 0.0001 to 10
5 | O=C(Cc1ccc(-c2cnc3[nH]c(-c4ccnc(N5CCOCC5)c4)cc3c2)c(F)c1)Nc1cncc(C(F)(F)F)c1 [Compound P-0201, 2-[3-fluoro-4-[2-(2-morpholino-4-pyridyl)-1H-pyrrolo[2,3-b]pyridin-5-yl]phenyl]-N-[5-(trifluoromethyl)-3-pyridyl]acetamide] | 0.0001 to 10 | 0.0001 to 10
6 | CCOc1n[nH]c2ncc(-c3ccc(CC(=O)Nc4cnc(OC)c(C(F)(F)F)c4)cc3F)cc12 [Compound P-0202, 2-[4-(3-ethoxy-1H-pyrazolo[3,4-b]pyridin-5-yl)-3-fluoro-phenyl]-N-[6-methoxy-5-(trifluoromethyl)-3-pyridyl]acetamide] | 0.0001 to 10 | 0.0001 to 10
7 | Cn1cc(Nc2ncc(-c3ccc(CC(=O)Nc4cncc(C(F)(F)F)c4)cc3F)cn2)cn1 [Compound P-0205, 2-[3-fluoro-4-[2-[(1-methylpyrazol-4-yl)amino]pyrimidin-5-yl]phenyl]-N-[5-(trifluoromethyl)-3-pyridyl]acetamide] | 0.0001 to 10 | 0.0001 to 10
8 | COc1ncc(NC(=O)Cc2ccc(-c3cnc(Nc4cnn(C)c4)nc3)c(F)c2)cc1C(F)(F)F [Compound P-0206, 2-[3-fluoro-4-[2-[(1-methylpyrazol-4-yl)amino]pyrimidin-5-yl]phenyl]-N-[6-methoxy-5-(trifluoromethyl)-3-pyridyl]acetamide] | 0.0001 to 10 | 0.0001 to 10
9 | Cn1cc(Nc2ncc(-c3cc(F)c(CC(=O)Nc4cncc(C(F)(F)F)c4)cc3F)cn2)cn1 [Compound P-0207, 2-[2,5-difluoro-4-[2-[(1-methylpyrazol-4-yl)amino]pyrimidin-5-yl]phenyl]-N-[5-(trifluoromethyl)-3-pyridyl]acetamide] | 0.0001 to 10 | 0.0001 to 10
10 | O=C(Cc1ccc(-c2cnc(Nc3cnn(C(F)F)c3)nc2)cc1)Nc1cncc(C(F)(F)F)c1 [Compound P-0209, 2-[4-[2-[[1-(difluoromethyl)pyrazol-4-yl]amino]pyrimidin-5-yl]phenyl]-N-[5-(trifluoromethyl)-3-pyridyl]acetamide] | 0.0001 to 10 | 0.0001 to 10
11 | Cc1ncc(NC(=O)Cc2ccc(-c3cnc(Nc4cnn(C(F)F)c4)nc3)cc2)cc1C(F)(F)F [Compound P-0210, 2-[4-[2-[[1-(difluoromethyl)pyrazol-4-yl]amino]pyrimidin-5-yl]phenyl]-N-[6-methyl-5-(trifluoromethyl)-3-pyridyl]acetamide] | 0.0001 to 10 | 0.0001 to 10
12 | COc1ncc(NC(=O)Cc2ccc(-c3cnc4[nH]nc(OC)c4c3)cc2)cc1C(F)(F)F [Compound P-0212, 2-[4-(3-methoxy-1H-pyrazolo[3,4-b]pyridin-5-yl)phenyl]-N-[6-methoxy-5-(trifluoromethyl)-3-pyridyl]acetamide] | 0.0001 to 10 | 0.0001 to 10

Other lines, results leading:

Row | IC50 [1] [µM] | IC50 [2] [µM] | SMILES
13 |  | 0.0001 to 10 | Cn1cnc(Nc2ncc(-c3ccc(CC(=O)Nc4cc(C(F)(F)F)ccn4)cc3F)cn2)c1 [Compound P-0018, 2-[3-fluoro-4-[2-[(1-methylimidazol-4-yl)amino]pyrimidin-5-yl]phenyl]-N-[4-(trifluoromethyl)-2-pyridyl]acetamide]
14 | 0.0001 to 10 | 0.0001 to 10 | Cn1cc(Nc2ncc(-c3cc(F)c(CC(=O)Nc4cc(C(F)(F)F)ccn4)cc3F)cn2)cn1 [Compound P-0019, 2-[2,5-difluoro-4-[2-[(1-methylpyrazol-4-yl)amino]pyrimidin-5-yl]phenyl]-N-[4-(trifluoromethyl)-2-pyridyl]acetamide]
15 |  | 0.0001 to 10 | Cn1cnc(Nc2ncc(-c3cc(F)c(CC(=O)Nc4cc(C(F)(F)F)ccn4)cc3F)cn2)c1 [Compound P-0020, 2-[2,5-difluoro-4-[2-[(1-methylimidazol-4-yl)amino]pyrimidin-5-yl]phenyl]-N-[4-(trifluoromethyl)-2-pyridyl]acetamide]
16 |  | 0.0001 to 10 | O=C(Cc1cc(F)c(-c2cnc(Nc3cnn(C(F)F)c3)nc2)cc1F)Nc1cc(C(F)(F)F)ccn1 [Compound P-0021, 2-[4-[2-[[1-(difluoromethyl)pyrazol-4-yl]amino]pyrimidin-5-yl]-2,5-difluoro-phenyl]-N-[4-(trifluoromethyl)-2-pyridyl]acetamide]
17 | 0.0001 to 10 | 0.0001 to 10 | COc1ncc(NC(=O)Cc2ccc(-c3cnc4[nH]nc(N)c4c3)c(F)c2)cc1C(F)(F)F [Compound P-0203, 2-[4-(3-amino-1H-pyrazolo[3,4-b]pyridin-5-yl)-3-fluoro-phenyl]-N-[6-methoxy-5-(trifluoromethyl)-3-pyridyl]acetamide]
18 | 0.0001 to 10 | 0.0001 to 10 | CC(C)(O)C#Cc1cc2cc(-c3ccc(CC(=O)Nc4cncc(C(F)(F)F)c4)cc3)cnc2[nH]1 [Compound P-0204, 2-[4-[2-(3-hydroxy-3-methyl-but-1-ynyl)-1H-pyrrolo[2,3-b]pyridin-5-yl]phenyl]-N-[5-(trifluoromethyl)-3-pyridyl]acetamide]
19 | 0.0001 to 10 | 0.0001 to 10 | COc1ncc(NC(=O)Cc2ccc(-c3cnc(Nc4cnn(C(F)F)c4)nc3)cc2)cc1C(F)(F)F [Compound P-0211, 2-[4-[2-[[1-(difluoromethyl)pyrazol-4-yl]amino]pyrimidin-5-yl]phenyl]-N-[6-methoxy-5-(trifluoromethyl)-3-pyridyl]acetamide]
20 | 0.0001 to 10 | 0.0001 to 10 | CCOc1n[nH]c2ncc(-c3ccc(CC(=O)Nc4cnc(OC)c(C(F)(F)F)c4)cc3)cc12 [Compound P-0213, 2-(4-(3-ethoxy-1H-pyrazolo[3,4-b]pyridin-5-yl)phenyl)-N-(6-methoxy-5-(trifluoromethyl)pyridin-3-yl)acetamide]
21 | 0.0001 to 10 | 0.0001 to 10 | COc1ncc(NC(=O)Cc2ccc(-c3cnc4[nH]c(C#CC(C)(C)O)cc4c3)cc2)cc1C(F)(F)F [Compound P-0214, 2-(4-(2-(3-hydroxy-3-methylbut-1-yn-1-yl)-1H-pyrrolo[2,3-b]pyridin-5-yl)phenyl)-N-(6-methoxy-5-(trifluoromethyl)pyridin-3-yl)acetamide]
